“And” between values parts separate entries of the source, which are not always exact repeats. Equal values may be shown once. Inconclusive results and toxic doses are left out. The calls were made as follows: active = survival T/C of 150% or more; inactive = T/C below 125% in these data.
System: P388 leukemia ip, CD2F1 mice, survival T/C
Assay: NCI In Vivo Anticancer Drug Screen. Data for tumor model P388 Leukemia (intraperitoneal) in CD2F1 (CDF1) mice
Details: endpoint: median survival time, higher = longer survival
Experimental: The antitumor activity of compounds was measured in mice bearing transplantable tumors. Survival or tumor size were measured and the results are expressed as the measurement made in the treated group (T) divided by the measurement made in the vehicle treated control group (C). The tumor model used in this assay is P388 Leukemia (intraperitoneal) in CD2F1 (CDF1) mice

[1] = dose: 50.0 mg/kg/injection, schedule: Q01DX009 (ip), vehicle: saline
[2] = dose: 100.0 mg/kg/injection, schedule: Q01DX009 (ip), vehicle: saline
[3] = dose: 200.0 mg/kg/injection, schedule: Q01DX009 (ip), vehicle: saline

Measured: T/C

Cc1ccc(-c2cnc3c(n2)c(=O)[nH]c(=O)n3C)cc1
inactive: dose: 100.0 mg/kg/injection, schedule: Q04DX003 (ip), vehicle: Klucel (hydroxypropylcellulose) (HPC) 103 % of control | dose: 200.0 mg/kg/injection, schedule: Q04DX003 (ip), vehicle: Klucel (hydroxypropylcellulose) (HPC) 98 % of control

CC(=O)OC1CC(C(C)C2CC(C)=C(C)C(=O)O2)C2(C)CCC3C(CC4OC45C(O)C=CC(=O)C35C)C12O (stereo unspecified)
inactive: dose: 7.5 mg/kg/injection, schedule: Q01DX005 (ip), vehicle: Klucel (hydroxypropylcellulose) (HPC) 108 % of control | dose: 15.0 mg/kg/injection, schedule: Q01DX005 (ip), vehicle: Klucel (hydroxypropylcellulose) (HPC) 105 % of control | dose: 30.0 mg/kg/injection, schedule: Q01DX005 (ip), vehicle: Klucel (hydroxypropylcellulose) (HPC) 101 % of control

CC(C)(C)OC(=O)NC(Cc1ccc(OCc2ccccc2)cc1)C(=O)ON1C(=O)CCC1=O (stereo unspecified)
inactive: dose: 50.0 mg/kg/injection, schedule: Q01DX005 (ip), vehicle: Klucel (hydroxypropylcellulose) (HPC) 93 % of control | dose: 100.0 mg/kg/injection, schedule: Q01DX005 (ip), vehicle: Klucel (hydroxypropylcellulose) (HPC) 88 % of control | dose: 200.0 mg/kg/injection, schedule: Q01DX005 (ip), vehicle: Klucel (hydroxypropylcellulose) (HPC) 100 % of control

COc1cc(NCCCCCCNC(C)C)c2nccc(C)c2c1
inactive: dose: 3.13 mg/kg/injection, schedule: Q01DX009 (ip), vehicle: saline 91 % of control | dose: 6.25 mg/kg/injection, schedule: Q01DX009 (ip), vehicle: saline 99 % of control | dose: 12.5 mg/kg/injection, schedule: Q01DX009 (ip), vehicle: saline 99 % of control

O=C(Nc1cccc(C(F)(F)F)c1)Oc1ccc(Cl)cc1C(=O)c1ccccc1
inactive: [1] 97 % of control | [2] 92 % of control | [3] 96 % of control

Nc1ncncc1-c1ccc(F)cc1
inactive: [1] 103 % of control | [2] 101 % of control

COc1cccc2c1C(=O)c1c(O)c3c(c(O)c1C2=O)C[C@@H](C(C)=O)C[C@@H]3OC1CC(N)C(O)C(C)O1 (stereo partly specified)
inactive: dose: 6.25 mg/kg/injection, schedule: Q04DX003 (ip), vehicle: water 109 % of control | dose: 12.5 mg/kg/injection, schedule: Q04DX003 (ip), vehicle: water 120 % of control | dose: 25.0 mg/kg/injection, schedule: Q04DX003 (ip), vehicle: water 113 % of control | dose: 50.0 mg/kg/injection, schedule: Q04DX003 (ip), vehicle: water 120 % of control | dose: 100.0 mg/kg/injection, schedule: Q04DX003 (ip), vehicle: water 93 % of control

ClCCN(CCCl)c1ccc(/C=N/Nc2ccnc3cc(Cl)ccc23)cc1
inactive: dose: 50.0 mg/kg/injection, schedule: Q01DX009 (ip), vehicle: saline with Tween-80 95 % of control | dose: 100.0 mg/kg/injection, schedule: Q01DX009 (ip), vehicle: saline with Tween-80 101 % of control | dose: 200.0 mg/kg/injection, schedule: Q01DX009 (ip), vehicle: saline with Tween-80 93 % of control

Clc1ccc(N=Cc2ccc(C=Nc3ccc(Cl)cn3)cc2)nc1
inactive: dose: 50.0 mg/kg/injection, schedule: Q01DX009 (ip), vehicle: Klucel (hydroxypropylcellulose) (HPC) 91 % of control | dose: 100.0 mg/kg/injection, schedule: Q01DX009 (ip), vehicle: Klucel (hydroxypropylcellulose) (HPC) 94 % of control | dose: 200.0 mg/kg/injection, schedule: Q01DX009 (ip), vehicle: Klucel (hydroxypropylcellulose) (HPC) 93 % of control

CCN(CC)CCCC(C)Nc1nncc2cc(Cl)ccc12 (stereo unspecified)
inactive: dose: 50.0 mg/kg/injection, schedule: Q01DX005 (ip), vehicle: saline 95 % of control | dose: 100.0 mg/kg/injection, schedule: Q01DX005 (ip), vehicle: saline 97 % of control

COC1C(/C=C/C(=O)CCl)OC2OC(C)(C)OC21 (stereo unspecified)
inactive: dose: 3.12 mg/kg/injection, schedule: Q01DX005 (ip), vehicle: saline 108 % of control | dose: 6.25 mg/kg/injection, schedule: Q01DX005 (ip), vehicle: saline 108 % of control | dose: 12.5 mg/kg/injection, schedule: Q01DX005 (ip), vehicle: saline 105 % of control

CC(C)CC(NC(CCC(=O)O)C(=O)O)C(=O)O (stereo unspecified)
inactive: dose: 2.25 mg/kg/injection, schedule: Q01DX005 (ip), vehicle: saline 106 % of control | dose: 4.5 mg/kg/injection, schedule: Q01DX005 (ip), vehicle: saline 106 % of control | dose: 9.0 mg/kg/injection, schedule: Q01DX005 (ip), vehicle: saline 96 % of control | dose: 18.0 mg/kg/injection, schedule: Q01DX005 (ip), vehicle: saline 104 % of control

CC(N)(Cc1ccc(O)c(O)c1)C(=O)O (stereo unspecified)
inactive: [1] 99 % of control and 107 % of control and 110 % of control | [2] 99 % of control and 102 % of control and 112 % of control | [3] 108 % of control and 96 % of control | dose: 400.0 mg/kg/injection, schedule: Q01DX009 (ip), vehicle: saline 105 % of control and 109 % of control and 115 % of control | dose: 600.0 mg/kg/injection, schedule: Q01DX009 (ip), vehicle: saline 114 % of control and 121 % of control and 94 % of control
